These results are taken from patent publication US20240307401A1, “TREATMENT OF JAK-INHIBITION-RESPONSIVE DISORDERS WITH PRODRUGS OF JAK INHIBITORS” (SUN PHARMACEEUTICAL INDUSTRIES, INC., priority 2021, published 2024).

In data set [1] the test system is patients suffering from alopecia areata. The note with it: human clinical trials, at certain doses; cited from earlier work.
Data set [2] is described as follows: In vitro conversion of Compound (I-1d) DBTA salt to CTP-543 under conditions similar to human stomach (0.1N HCl, 37° C.), HPLC analysis. It counts as physicochemical. The note with it: for CTP-543 Concentration: 28.5 mg DBTA salt in 250 mL. Here is the method:
An in vitro study was conducted to test the conversion of the dibenzoyl-D-tartaric acid (DBTA) salt of Compound (I-1d) (a compound of Formula (I)) to CTP-543 (a compound of Formula (III)) when subjected to biologically-relevant conditions similar to human stomach conditions (0.1N hydrochloric acid, 37° C.).
Study Conditions: At 37° C., 28.5 mg of Compound (I-1d)·DBTA salt (equivalent to 14.6 mg of Compound (I-1d)) was added to 250 mL of 0.1N HCl while stirring. Samples were removed via syringe at 30, 60, 120 and 240 minutes, (times relevant to potential human gastric residence time), then were filtered through a syringe filter and analyzed by HPLC.

Take `[2H]C1([2H])C([C@@H](CC#N)n2cc(-c3ncnc4[nH]ccc34)cn2)C([2H])([2H])C([2H])([2H])C1([2H])[2H]` [CTP-543, (R)-3-(4-(7H-pyrrolo[2,3-d]pyrimidin-4-yl)-1H-pyrazol-1-yl)-3-(cyclopentyl-2,2,3,3,4,4,5,5-d8)propanenitrile]: the “Hair growth in patients suffering from alopecia areata” value in data set [1] is reported as “shown to stimulate hair growth”.
Take `[2H]C1([2H])C([C@@H](CC#N)n2cc(-c3ncnc(N)c3CC(OC)OC)cn2)C([2H])([2H])C([2H])([2H])C1([2H])[2H]` [Compound (I-1d)]: the “% Conversion to CTP-543” value in data set [2] (30 min) amounted to 8%; in data set [2] (60 min), 10%; in data set [2] (120 min), 16%; in data set [2] (240 min) it was 22%. Further, the “CTP-543 Concentration” value in data set [2] (30 min) amounted to 0.004 mg/mL; in data set [2] (60 min), 0.005 mg/mL; in data set [2] (120 min) it was 0.008 mg/mL; in data set [2] (240 min), 0.011 mg/mL.
